The values below come from ChEMBL document CHEMBL3124908, “Design, synthesis, and evaluation of novel heteroaromatic analogs of curcumin as anti-cancer agents” (Eur J Med Chem, 2014).

Series [1] deals with PC-3. The series can be described thus: Cytotoxicity against human PC3 cells after 5 days by trypan blue exclusion assay. The series is classed as functional, cell-based. The note with it: PC-3, 120 h.
Series [2] deals with DU-145. The series can be described thus: Cytotoxicity against human DU145 cells after 5 days by trypan blue exclusion assay. The series is classed as functional, cell-based. As to conditions: DU-145, 120 h.
The nature of series [3]: Cytotoxicity against human MCF10A cells up to 1 uM after 5 days by trypan blue exclusion assay. In kind it is cell-based. The note with it: mcf-10a, 120 h.
Series [4] deals with HeLa. The series can be described thus: Cytotoxicity against human HeLa cells after 5 days by trypan blue exclusion assay. As to conditions: 120 h. In kind it is functional, cell-based.
Series [5] concerns A549. The series can be described thus: Cytotoxicity against human A549 cells after 5 days by trypan blue exclusion assay. The series is classed as functional, cell-based. The note with it: A549, 120 h.
Series [6] concerns MDA-MB-231. The series can be described thus: Cytotoxicity against human MDA-MB-231 cells after 5 days by trypan blue exclusion assay. The series is classed as functional, cell-based. As to conditions: MDA-MB-231, 120 h.

As usually defined, the IC50 is the concentration that gives 50% inhibition. A high value points to a need for much substance.

Regarding `Cn1nccc1/C=C1\CCC/C(=C\c2ccnn2C)C1=O`, the results for the IC50 in series [1] and in series [2] were 260 nM and 730 nM, respectively.

`Cc1cc(/C=C2\CN(C)C/C(=C\c3cc(C)no3)C2=O)on1`: the half-maximal inhibitory concentration (IC50) in series [1] turned out to be 130 nM; in series [2] it was 690 nM.

For `O=C(/C=C/c1cscn1)/C=C/c1cscn1`, the figures for the IC50 in series [1] and in series [2] were 94 nM and 96 nM, respectively.

Consider `CCC(C)n1ccnc1/C=C1\CN(C)C/C(=C\c2nccn2C(C)CC)C1=O` (centres undefined), for which the figures for the 50% inhibitory concentration (IC50) in series [1] and in series [2] were 6630 nM and 10 nM, respectively.

As for `CC(C)n1ccnc1/C=C1\CN(C)C/C(=C\c2nccn2C(C)C)C1=O`, the IC50 in series [1] amounted to 110 nM; in series [2], 140 nM.

Consider `CC(C)Cn1ccnc1/C=C/C(=O)/C=C/c1nccn1CC(C)C`, for which, in series [3], the Activity entry is “Non-toxic”. Besides, the IC50 is 390 nM in series [4]; 110 nM in series [5]; 46 nM in series [1]; 57 nM in series [2]; 150 nM in series [6].

For `Cc1cc(/C=C/C(=O)/C=C/c2cc(C)on2)no1`, the IC50 in series [1] is 250 nM; in series [2], 42 nM.

For `Cc1cc(/C=C2\CN(C)C/C(=C\c3cc(C)on3)C2=O)no1`, the IC50 was 140 nM in series [1] and 34 nM in series [2].

`CC(C)Cn1ccnc1/C=C1\CCC/C(=C\c2nccn2CC(C)C)C1=O`: the figures for the IC50 in series [1] and in series [2] were 470 nM and 360 nM, respectively.

`CCC(C)n1ccnc1/C=C/C(=O)/C=C/c1nccn1C(C)CC` (centres undefined): the Activity entry in series [3] is recorded as “Non-toxic”. In addition, the IC50 in series [4] was 62 nM; in series [5] it was 100 nM; in series [1], 63 nM; in series [2] it was 35 nM; in series [6], 130 nM.

Turning to `CC(C)n1ccnc1/C=C1\CCC/C(=C\c2nccn2C(C)C)C1=O`, the IC50 turned out to be 160 nM in series [1] and 100 nM in series [2].

As to `O=C(/C=C/c1ccccn1)/C=C/c1ccccn1`, in series [3], the Activity result is reported as “Non-toxic”. For the same compound, the IC50 in series [4] amounted to 120 nM; in series [5] it was 51 nM; in series [1], 33 nM; in series [2], 20 nM; in series [6], 97 nM.

In the case of `CN1C/C(=C\c2nccn2C)C(=O)/C(=C/c2nccn2C)C1`, the values for the IC50 in series [1] and in series [2] were 93 nM and 130 nM, respectively.

In the case of `Cc1cc(/C=C/C(=O)/C=C/c2cc(C)no2)on1`, in series [3], the Activity result was “Non-toxic”. Further, the IC50 was 190 nM in series [4]; 160 nM in series [5]; 41 nM in series [1]; 16 nM in series [2]; 156 nM in series [6].

As for `CN1C/C(=C\c2nccs2)C(=O)/C(=C/c2nccs2)C1`, the values for the IC50 in series [1] and in series [2] were 420 nM and 46 nM, respectively.

For `Cc1nc(/C=C2\CCC/C(=C\c3coc(C)n3)C2=O)co1`, the IC50 was 1970 nM in series [1] and 1650 nM in series [2].

Take `CC(C)n1ccnc1/C=C/C(=O)/C=C/c1nccn1C(C)C`: the IC50 in series [1] turned out to be 89 nM; in series [2], 54 nM.

On to `Cn1ccnc1/C=C/C(=O)/C=C/c1nccn1C`, for which the IC50 is 110 nM in series [1] and 57 nM in series [2].

With `Cc1cc(/C=C2\CCC/C(=C\c3cc(C)on3)C2=O)no1`, the IC50 in series [1] worked out at 71 nM; in series [2], 70 nM.

In the case of `Cn1cc(/C=C2\CCC/C(=C\c3cnn(C)c3)C2=O)cn1`, the IC50 in series [1] stood at 130000 nM; in series [2] it was 90000 nM.

With `Cc1nc(/C=C/C(=O)/C=C/c2coc(C)n2)co1`, the IC50 stood at 840 nM in series [1] and 750 nM in series [2].

For `Cn1ccnc1/C=C1\CCC/C(=C\c2nccn2C)C1=O`, the IC50 in series [1] worked out at 94 nM; in series [2], 630 nM.

Turning to `O=C1/C(=C/c2cscn2)CCC/C1=C\c1cscn1`, the IC50 came out at 120 nM in series [1] and 75 nM in series [2].

For `CN1C/C(=C\c2cnn(C)c2)C(=O)/C(=C/c2cnn(C)c2)C1`, in series [1], the midpoint of inhibition, the IC50, lay at 76000 nM.

`CN1C/C(=C\c2ccnn2C)C(=O)/C(=C/c2ccnn2C)C1`: the IC50 in series [1] was 1020 nM; in series [2], 1640 nM.

Take `CCC(C)n1ccnc1/C=C1\CCC/C(=C\c2nccn2C(C)CC)C1=O` (centres undefined): the IC50 in series [1] stood at 830 nM; in series [2], 250 nM.

As to `O=C1/C(=C/c2nccs2)CCC/C1=C\c1nccs1`, the figures for the 50% inhibitory concentration (IC50) in series [1] and in series [2] were 110 nM and 120 nM, respectively.

Regarding `Cn1nccc1/C=C/C(=O)/C=C/c1ccnn1C`, the IC50 is 130 nM in series [1] and 160 nM in series [2].

As for `Cc1cc(/C=C2\CCC/C(=C\c3cc(C)no3)C2=O)on1`, the half-maximal inhibitory concentration (IC50) is 54 nM in series [1] and 340 nM in series [2].

Consider `O=C(/C=C/c1nccs1)/C=C/c1nccs1`, for which the IC50 in series [1] worked out at 68 nM; in series [2], 55 nM.

Regarding `COc1cc(/C=C/C(=O)CC(=O)/C=C/c2ccc(O)c(OC)c2)ccc1O` [CURCUMIN], the IC50 in series [4] was found to be 12600 nM; in series [5] it was 15000 nM; in series [1], 1980 nM; in series [2], 300 nM; in series [6], 880 nM.

As for `Cc1nc(/C=C2\CN(C)C/C(=C\c3coc(C)n3)C2=O)co1`, the figures for the IC50 in series [1] and in series [2] were 310 nM and 76 nM, respectively.

Turning to `CN1C/C(=C\c2cscn2)C(=O)/C(=C/c2cscn2)C1`, the IC50 in series [1] was 800 nM; in series [2] it was 430 nM.
